The numbers were not newly measured in Sander's compilation of Henry's law constants (doi:10.1021/ci0256485), which cites them from elsewhere.

This data set is described as follows: Henry solubility constant Hcp at 298.15 K (mol/(m3 Pa)). The settings on record: reference: Delgado and Alderete (2003); cited value.

On to `CCNc1nc(NC(C)C)nc(SC)n1` [ametryn], for which the “Henry solubility constant Hcp” value is 4100.
Turning to `Cc1nnc(-c2ccccc2)c(=O)n1N` [metamitron], the “Henry solubility constant Hcp” value is 2.2e+06.
